Paper PMC7157554, “Anti-Trypanosomal Proteasome Inhibitors Cure Hemolymphatic and Meningoencephalic Murine Infection Models of African Trypanosomiasis” (Tropical Medicine and Infectious Disease, 2020)
Read-outs that look alike come from different tables or passages of the source.

Legend:
T. brucei PSMB4^F24L = assay: Growth inhibition of T. brucei expressing F24L mutant 20S proteasome β4 subunit; type: cell-based, Trypanosoma brucei
Experimental: (§1) For determination of 50% growth inhibition, all compounds were dissolved in DMSO, and 200 nL of threefold serially diluted compounds were added into solid-bottom 384-well white plates (Greiner Bio-One, Kremsmunster, Austria) by an Echo 555 acoustic liquid-handling system. Forty microliters of 10^4 cells/mL of T. b. brucei parasites was added into each well, and the plates were incubated in a 5% CO2 incubator at 37 °C for 48 h. Viability of parasites were determined by measuring intracellular ATP levels, using CellTiter-Glo (CTG) luminescent cell viability reagent (Promega, Madison, Wisconsin WI, USA). The EC50 values were determined by using GraphPad Prism software. Growth inhibition assays for all clinical isolates were carried out as described earlier. All experiments had two technical replicates and three biological replicates. Appropriate statistical tests were used for evaluating significance, and mean ± SEM is represented in the tables.

T. brucei PSMB4^WT = assay: Growth inhibition of T. brucei expressing wild-type 20S proteasome β4 subunit; type: cell-based; details: Trypanosoma brucei, read-out: T. brucei PSMB4^WT EC50
Experimental: as §1

[1] = stage 2 HAT mouse model; cited from earlier work
T. b. rhodesiense = assay: Growth inhibition of T. b. rhodesiense strains; type: cell-based; details: Trypanosoma brucei, mean ± SD
T. b. gambiense = assay: Growth inhibition of T. b. gambiense strains; type: cell-based; details: Trypanosoma brucei, mean ± SD
T. b. brucei = assay: Growth inhibition of T. b. brucei strains BS221, BS221 (P2 KO), STIB950; type: cell-based; details: Trypanosoma brucei, mean ± SD
Experimental: The T. b. brucei strain Lister 427 (bloodstream form) parasites were continuously grown in complete HMI-9 medium supplemented with 10% Serum Plus and 10% heat-inactivated fetal bovine serum (FBS). All other parasite strains were cultured as described elsewhere.
as §1, with “Appropriate statistical tests were used for evaluating significance, and mean ± SEM is represented in the tables.” left out

[2] = tested on: T. b. brucei (GVR35-VSL2); assay: Meningoencephalic mouse model (stage 2 HAT efficacy model, GVR35) with bioluminescence imaging; type: in vivo
Experimental: The GVR35 mouse CNS model mimics the second (meningoencephalic) stage of African trypanosomiasis. Female CD1 mice (~8 weeks old, from Charles River) were injected intraperitoneally (i.p.) with 3 × 10^4 T. b. brucei (GVR35-VSL2) bloodstream-form parasites. As controls, a group of three untreated mice and another group of three mice treated with diminazene aceturate (DA) were included. […] Mice treated with DA usually relapse after 42 days post-infection. […]
Blood parasitemia was quantified weekly from day 21/22, by microscopy of blood from the tail vein. Mice were imaged for bioluminescence using an in vivo imaging system (IVIS) prior to treatment on day 21/22, and weekly after treatment, as described previously. Briefly, mice, in groups of three, were injected i.p. with 150 mg of D-luciferin (Promega) per kilogram body weight in PBS and imaged after 10 min, using an IVIS Spectrum (PerkinElmer, Waltham, Massachusetts MA, USA). Living Image Software (PerkinElmer) was used for acquisition and analysis of bioluminescence imaging data. Bioluminescence in the same rectangular region of interest (ROI) on whole-body mouse images was quantified and is shown in total flux (photons per second). Images were cropped to the ROIs and composites of images from representative mice are shown. Uncured mice were euthanized within 1 or 2 days of parasite detection in the blood. Cured mice were euthanized between day 92 and 101 post-infection. All the results from the individual experiments were reported as number of mice cured over total number of mice treated. A Kaplan–Meier plot was used for representing the number of mice cured at different treatment doses.

CC(C)C[C@H](NC(=O)[C@H](Cc1ccccc1)NC(=O)c1cnccn1)B(O)O [Bortezomib, reference compound]
Shift in growth inhibition concentration, F24L mutant vs wild-type (T. brucei PSMB4^F24L): equipotent | EC50 (T. brucei PSMB4^F24L; Trypanosoma brucei, read-out: T. brucei PSMB4^F24L EC50): 1.1 ± 0.26 nM | EC50 (T. brucei PSMB4^WT): 0.94 ± 0.05 nM

CSc1ccc(OCc2ncc([N+](=O)[O-])n2C)cc1 [fexinidazole]
Curative dose [1]: 200 mg/kg

N=C(N)c1ccc(OCCCCCOc2ccc(C(=N)N)cc2)cc1 [Pentamidine, reference compound]
EC50 (T. b. rhodesiense; RHODESIENSE / STIB900, strain STIB900 Mel^R (melarsoprol-resistant), read-out: T. b. rhodesiense EC50): 217 ± 86 nM | EC50 (T. b. rhodesiense; RHODESIENSE / STIB900, strain STIB900 Pent^R (pentamidine-resistant), read-out: T. b. rhodesiense EC50): 203 ± 54 nM | EC50 (T. b. gambiense; GAMBIENSE / STIB930, strain STIB930, read-out: T. b. gambiense EC50): 1.4 ± 0.9 nM | EC50 (T. b. gambiense; GAMBIENSE, strain K048, read-out: T. b. gambiense EC50): 33.9 ± 16 nM | EC50 (T. b. gambiense; GAMBIENSE, strain R130, read-out: T. b. gambiense EC50): 13.5 ± 4 nM | EC50 (T. b. brucei; STIB950, strain STIB950, read-out: T. b. brucei EC50): 0.5 ± 0.2 nM | EC50 (T. b. brucei; strain BS221 (P2 KO), read-out: T. b. brucei EC50): 3.1 ± 0.4 nM | EC50 (T. b. brucei; strain BS221, read-out: T. b. brucei EC50): 0.3 ± 0.1 nM

CC1(C)OB(O)c2cc(NC(=O)c3ccc(F)cc3C(F)(F)F)ccc21 [acoziborole]
Curative dose [1]: 25 mg/kg

N=C(N)c1ccc(/N=N/Nc2ccc(C(=N)N)cc2)cc1 [Diminazene, diminazene aceturate, reference compound]
% Cured ([2]; 40 mg/kg QD): 0% | Mean Day of Relapse ([2]; 40 mg/kg QD): 42 days post infection | Mice Cured/Total ([2]; 40 mg/kg QD (control compound lacking brain penetration)): 0/3

Nc1nc(N)nc(Nc2ccc([As]3SCC(CO)S3)cc2)n1 (stereo not shown) [Melarsoprol, reference compound]
EC50 (T. b. rhodesiense; RHODESIENSE / STIB900, read-out: T. b. rhodesiense EC50, strain STIB900): 3.9 ± 2 nM | EC50 (T. b. rhodesiense; RHODESIENSE / STIB900, read-out: T. b. rhodesiense EC50, strain STIB900 Mel^R (melarsoprol-resistant)): 95.5 ± 24 nM | EC50 (T. b. rhodesiense; RHODESIENSE / STIB900, read-out: T. b. rhodesiense EC50, strain STIB900 Pent^R (pentamidine-resistant)): 46.8 ± 19 nM | EC50 (T. b. gambiense; GAMBIENSE / STIB930, read-out: T. b. gambiense EC50, strain STIB930): 7.1 ± 2.7 nM | EC50 (T. b. gambiense; GAMBIENSE, read-out: T. b. gambiense EC50, strain K048): 10.2 ± 1.9 nM | EC50 (T. b. gambiense; GAMBIENSE, read-out: T. b. gambiense EC50, strain R130): 7.7 ± 3.1 nM | EC50 (T. b. brucei; STIB950, read-out: T. b. brucei EC50, strain STIB950): 16.9 ± 8.8 nM | EC50 (T. b. brucei; read-out: T. b. brucei EC50, strain BS221 (P2 KO)): 37.7 ± 14.8 nM | EC50 (T. b. brucei; read-out: T. b. brucei EC50, strain BS221): 4.7 ± 1.8 nM
